Reference: patent US11802258B2, “Perfume precursor” (TAKASAGO INTERNATIONAL CORPORATION, priority 2017, dated 2023)

Legend:
[1] = test system: Staphylococcus aureus NBRC12732; assay: Scent emission test by microorganism, Staphylococcus aureus; assay type: cell-based; conditions: GC/MS head space peak area minus control culture; 10 mg fragrance precursor in 3 mL culture solution, 30° C., 20 hours
Experimental: (§1) Culture of Staphylococcus aureus strain NBRC12732, Corynebacterium xerosis strain JCM1324, Pseudomonas aeruginosa strain NBRC13275, and Moraxella osloensis strain ATCC19976:
(§2) After inoculating each of bacteria in Muller-Hinton liquid medium, shaking culture was performed at 30° C. for 20 hours, and 3 mL of the resulting preculture solution was transferred to a vial bottle. 10 mg of each of the fragrance precursors was mixed therewith and after hermetical sealing, shaking culture was further performed at 30° C. for 20 hours.
(§3) A peak area of the scent-emitting compound was obtained by performing GC/MS analysis of the head space component included in the vial bottle containing 3 mL of a microorganism culture solution in which 10 mg of the fragrance precursor was mixed. A microorganism culture solution having not mixed therein the fragrance precursor was used as the control, and a peak area of the control was obtained by the same method. The scent emission amount was determined from the difference between the obtained peak area of the scent-emitting compound and the peak area of the control.
(§4) Measurement instrument: 7890GC/5975MSD (manufactured by Agilent Technologies) • Column: BC-WAX 50 m×0.25 mm I.D. • Temperature rise: 70° C. to 220° C., 4° C./min • Split ratio: splitless

[2] = test system: lipase preparation AY “Amano” 30SD; assay: Lipase-induced scent emission test, lipase preparation AY “Amano” 30SD; assay type: biochemical; conditions: GC/MS head space peak area of scent-emitting compound minus water control; 10 mg fragrance precursor + 1 g aqueous 1% lipase preparation solution
Experimental: (§5) 10 mg of a fragrance precursor and 1 g of an aqueous 1% lipase preparation solution were put in a vial bottle and mixed and after hermetically sealing the bottle, the mixture was subjected to GC/MS analysis of the head space component to obtain a peak area of the scent-emitting compound. As a control, water was used in place of the aqueous 1% lipase preparation solution, and a peak area of the control was obtained by the same method. The scent emission amount was determined from the difference between the obtained peak area of the scent-emitting compound and the peak area of the control.
(§6) (GC/MS Measurement Conditions)
(§7) Measurement instrument: 7890GC/5975M (manufactured by Agilent Technologies) • Column: BC-WAX50 m×0.25 mm I.D. • Temperature rise: 70° C. to 220° C., 4° C./min • Split ratio: 60:1

[3] = target: T1, lipase preparation Lipex 100 L (Thermomyces lanuginosus, UniProt O59952, N255R/T253R); assay: Lipase-induced scent emission test, lipase preparation Lipex 100 L; assay type: biochemical; conditions: for Scent Emission Amount: GC/MS head space peak area of scent-emitting compound minus water control, 10 mg fragrance precursor + 1 g aqueous 1% lipase preparation solution; for Scent-Emitting Compound: compound released, GC/MS of head space
T1 construct: purchased Novozymes Lipex 100 L
T1 sequence (O59952 23-291 T253R/N255R): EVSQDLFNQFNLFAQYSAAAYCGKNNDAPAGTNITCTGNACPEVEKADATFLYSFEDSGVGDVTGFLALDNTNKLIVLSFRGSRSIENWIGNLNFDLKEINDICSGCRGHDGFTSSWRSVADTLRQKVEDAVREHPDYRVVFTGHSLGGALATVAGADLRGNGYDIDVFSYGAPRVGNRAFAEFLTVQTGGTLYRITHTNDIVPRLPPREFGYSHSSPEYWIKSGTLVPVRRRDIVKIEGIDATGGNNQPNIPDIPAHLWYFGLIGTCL
Experimental: as §5, §6, §7

[4] = test system: Moraxella osloensis ATCC19976; assay: Scent emission test by microorganism, Moraxella osloensis; assay type: cell-based; conditions: GC/MS head space peak area minus control culture; 10 mg fragrance precursor in 3 mL culture solution, 30° C., 20 hours
Experimental: as §1, §2, §3, §4

[5] = test system: Malassezia furfur NBRC0656; assay: Scent emission test by microorganism, Malassezia furfur; assay type: cell-based; conditions: GC/MS head space peak area minus control culture; 10 mg fragrance precursor in 3 mL culture solution, static culture 28° C., 3 days
Experimental: Culture of Malassezia furfur Strain NBRC0656:
After inoculating the bacterium in Sabouraud liquid medium containing 0.1% Tween 80, static culture was performed at 28° C. for 3 days under anaerobic conditions, and 3 mL of the resulting preculture solution was transferred to a vial bottle. 10 mg of the fragrance precursor was mixed therewith and after hermetical sealing, static culture was further performed at 28° C. for 3 days.
as §3, §4

[6] = test system: Propionibacterium acnes JCM6473; assay: Scent emission test by microorganism, Propionibacterium acnes; assay type: cell-based; conditions: GC/MS head space peak area minus control culture; 10 mg fragrance precursor in 3 mL culture solution, static culture 28° C., 3 days
Experimental: Culture of Propionibacterium acnes Strain JCM6473:
After inoculating the bacterium in GAM bouillon liquid medium containing Hemin 0.5 ppm and Menadione 0.5 ppm, static culture was performed at 28° C. for 3 days under anaerobic conditions, and 3 mL of the resulting preculture solution was transferred to a vial bottle. 10 mg of each of the fragrance precursors was mixed therewith and after hermetical sealing, static culture was further performed at 28° C. for 3 days.
as §3, §4

[7] = test system: Pseudomonas aeruginosa NBRC13275; assay: Scent emission test by microorganism, Pseudomonas aeruginosa; assay type: cell-based; conditions: GC/MS head space peak area minus control culture; 10 mg fragrance precursor in 3 mL culture solution, 30° C., 20 hours
Experimental: as §1, §2, §3, §4

[8] = test system: Corynebacterium xerosis JCM1324; assay: Scent emission test by microorganism, Corynebacterium xerosis; assay type: cell-based; conditions: GC/MS head space peak area minus control culture; 10 mg fragrance precursor in 3 mL culture solution, 30° C., 20 hours
Experimental: as §1, §2, §3, §4

**Q.** CC/C=C\CCOC(=O)c1ccccc1O [(Z)-3-hexenyl salicylate] was tested. Which “Scent Emission Amount” value [1] did it give?
**A.** The value was 14,126,965.

**Q.** And the “Scent Emission Amount” value [2]?
**A.** Its value is 16,933,990.

**Q.** Which “Scent Emission Amount” value [3] does the source give for CC(C)=CCC[C@H](C)CCOC(=O)c1ccccc1 [Example 1, 3,7-dimethyl-6-octenyl benzoate] here?
**A.** Its value is 28,098,876.

**Q.** And the “Scent-Emitting Compound” value [3]?
**A.** The value was “citronellol”.

**Q.** What does the source list for CCCC(CC[C@@H]1[C@@H](C)CCCC1(C)C)OC(=O)c1ccc(OC)cc1 (stereo partly drawn) [Example 3, 1-((R,6S)-2,2,6-trimethylcyclohexyl)-3-hexanyl Anisate]?
**A.** Scent Emission Amount [3]: 40,430,750; Scent Emission Amount [2]: 40,373,157

**Q.** How did the “Scent Emission Amount” value [2] turn out when CC(C)[C@@H]1CC[C@@H](C)C[C@H]1OC(=O)c1ccccc1 [Example 6, (1R,2S,5R)-isopropyl-5-methylcyclohexyl benzoate] was run?
**A.** Its value is 82,023,336.

**Q.** CC(C)=CCC/C(C)=C/CC[C@H](C)CCOC(=O)c1ccccc1 [Example 7, (S,E)-3,7,11-trimethyl-6,10-dodecadienyl Benzoate] was tested. Which “Scent Emission Amount” value [2] did it give?
**A.** Its value is 88,986,381.

**Q.** COc1ccc(C(=O)OCC[C@@H](C)CC/C=C(\C)CCC=C(C)C)cc1 [Example 8, (S,E)-3,7,11-trimethyl-6,10-dodecadienyl Anisate] was tested. Which “Scent Emission Amount” value [2] did it give?
**A.** The value was 23,338,647.

**Q.** Which results are given for CC(C)=CCC/C(C)=C/CC[C@H](C)CCOC(=O)/C=C/c1ccccc1 [Example 10, (S,E)-3,7,11-trimethyl-6,10-dodecadienyl Cinnamate]?
**A.** Scent Emission Amount [3]: 19,967,420; Scent-Emitting Compound [3]: dihydrofarnesol

**Q.** With CC/C=C\CCOC(=O)c1ccccc1 [Example 11, (Z)-3-hexenyl Benzoate] as the molecule, how does the “Scent Emission Amount” value [2] read?
**A.** The value was 49,663,459.

**Q.** Which “Scent Emission Amount” value [3] does the source give for C=CCc1ccc(OC(=O)c2ccccc2)c(OC)c1 [Example 12, 4-allyl-2-methoxyphenyl benzoate] here?
**A.** The value was 164,744,420.

**Q.** And the “Scent-Emitting Compound” value [3]?
**A.** The value was “eugenol”.

**Q.** How did the “Scent Emission Amount” value [3] turn out when COc1cc(C=O)ccc1OC(=O)c1ccccc1 [Example 13, 4-formyl-2-methoxyphenyl Benzoate] was run?
**A.** Its value is 47,188,750.

**Q.** And the “Scent-Emitting Compound” value [3]?
**A.** Its value is “vanillin”.

**Q.** With C=CCCCCCCCCOC(=O)c1ccccc1 [Example 14, 9-decenyl Benzoate] as the molecule, how does the “Scent Emission Amount” value [4] read?
**A.** Its value is 86,274,718.

**Q.** What about the “Scent Emission Amount” value [5] of the same molecule?
**A.** The value was 304,030,021.

**Q.** And the “Scent Emission Amount” value [6]?
**A.** The value was 133,440,692.

**Q.** How did the “Scent Emission Amount” value [2] turn out when O=C(C=Cc1ccccc1)OCC=Cc1ccccc1 [cinnamyl cinnamate] was run?
**A.** Its value is 24,711,289.

**Q.** For CC(C)=CCCC(C)CCOC(=O)Cc1ccccc1 (stereo not drawn) [citronellyl phenylacetate], which “Scent Emission Amount” value [4] is on record?
**A.** The value was 500,940,481.

**Q.** And the “Scent Emission Amount” value [7]?
**A.** The value was 150,385,642.

**Q.** What about the “Scent Emission Amount” value [5] of the same molecule?
**A.** The value was 369,118,269.

**Q.** What about the “Scent Emission Amount” value [6] of the same molecule?
**A.** Its value is 292,401,763.

**Q.** For CC(C)=CCC/C(C)=C/COC(=O)c1ccccc1 [geranyl benzoate], which “Scent Emission Amount” value [1] is on record?
**A.** Its value is 839,961,157.

**Q.** What about the “Scent Emission Amount” value [7] of the same molecule?
**A.** Its value is 117,161,311.

**Q.** And the “Scent Emission Amount” value [5]?
**A.** Its value is 121,633,184.

**Q.** And the “Scent Emission Amount” value [6]?
**A.** The value was 105,061,217.

**Q.** What about the “Scent Emission Amount” value [2] of the same molecule?
**A.** The value was 78,461,812.

**Q.** Which results are given for CC(C)=CCC/C(C)=C/COC(=O)Cc1ccccc1 [geranyl phenylacetate]?
**A.** Scent Emission Amount [8]: 39,033,900; Scent Emission Amount [2]: 54,842,763

**Q.** O=C(OCCc1ccccc1)c1ccccc1 [phenylethyl benzoate] was tested. Which “Scent Emission Amount” value [2] did it give?
**A.** The value was 96,460,830.

**Q.** O=C(C=Cc1ccccc1)OCCc1ccccc1 [phenylethyl cinnamate] was tested. Which “Scent Emission Amount” value [1] did it give?
**A.** Its value is 144,750,281.

**Q.** And the “Scent Emission Amount” value [7]?
**A.** The value was 247,508,719.

**Q.** And the “Scent Emission Amount” value [5]?
**A.** The value was 351,450,490.

**Q.** And the “Scent Emission Amount” value [6]?
**A.** Its value is 112,497,882.

**Q.** What about the “Scent Emission Amount” value [2] of the same molecule?
**A.** Its value is 22,892,002.

**Q.** O=C(Cc1ccccc1)OCCc1ccccc1 [phenylethyl phenylacetate] was tested. Which “Scent Emission Amount” value [2] did it give?
**A.** The value was 50,855,859.

**Q.** How did the “Scent Emission Amount” value [2] turn out when C=C(C)CCC[C@H](C)CCOC(=O)Cc1ccccc1 [rosinyl phenylacetate] was run?
**A.** Its value is 56,492,946.
